# Assay results reported in ChEMBL document CHEMBL1201862, “PubChem BioAssay data set” (2004).
#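 Grown in 96-well plates, cells were treated for 48 hours with each compound at five concentrations. Insufficient inhibition: endpoint recorded as highest concentration tested. At the GI50, growth is halved.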 Calls of active or inactive are those of the source. No stated cut-off is given here; in the data, active = GI50 up to about 1.1 µM and inactive = higher.
# Assays:
# Assay in all cases: NCI-60 cell line screen, 48 h
# DU-145 = test system: DU-145
# MDA-MB-435 = test system: MDA-MB-435
# SK-MEL-5 = test system: SK-MEL-5
# NCI-H460 = test system: NCI-H460
# NCI/ADR-RES = test system: NCI/ADR-RES
# U-251 = test system: U-251
# A549 = test system: A549
# SK-MEL-28 = test system: SK-MEL-28
# HOP-92 = test system: HOP-92
# ACHN = test system: ACHN
# TK-10 = test system: TK-10
# SK-MEL-2 = test system: SK-MEL-2
# SNB-19 = test system: SNB-19
# CCRF-CEM = test system: CCRF-CEM
# LOX IMVI = test system: LOX IMVI
# OVCAR-3 = test system: OVCAR-3
# UACC-62 = test system: UACC-62
# T47D = test system: T47D
# KM12 = test system: KM12
# CAKI-1 = test system: CAKI-1
# SN12C = test system: SN12C
# IGROV-1 = test system: IGROV-1
# Malme-3M = test system: Malme-3M
# NCI-H226 = test system: NCI-H226
# SNB-75 = test system: SNB-75
# MDA-N = test system: MDA-N
# 786-0 = test system: 786-0
# SF-268 = test system: SF-268
# HCT-116 = test system: HCT-116
# HT-29 = test system: HT-29
# OVCAR-4 = test system: OVCAR-4
# M14 = test system: M14
# EKVX = test system: EKVX
# HL-60 = test system: HL-60
# UO-31 = test system: UO-31
# MDA-MB-231 = test system: MDA-MB-231
# PC-3 = test system: PC-3
# OVCAR-5 = test system: OVCAR-5
# SF-295 = test system: SF-295
# NCI-H23 = test system: NCI-H23
# BT-549 = test system: BT-549
# Hs-578T = test system: Hs-578T
# SK-OV-3 = test system: SK-OV-3
# MOLT-4 = test system: MOLT-4
# COLO 205 = test system: COLO 205
# OVCAR-8 = test system: OVCAR-8
# UACC-257 = test system: UACC-257
# SF-539 = test system: SF-539
# SW-620 = test system: SW-620
# RXF 393 = test system: RXF 393
# HOP-62 = test system: HOP-62
# HCT-15 = test system: HCT-15
# NCI-H522 = test system: NCI-H522
# MCF7 = test system: MCF7
# HCC 2998 = test system: HCC 2998
# K562 = test system: K562
# A498 = test system: A498
# RPMI-8226 = test system: RPMI-8226
# SR = test system: SR
structure (smiles),measurement,setting,value
CCCCCCCCCCCCCCCCCCNc1ccn(C2OC(CO)C(OP(=O)(O)OCC3CCC(n4ccc(N)nc4=O)O3)C2O)c(=O)n1 (centres undefined),GI50,DU-145,> 100 µM (inactive)
same,GI50,MDA-MB-435,> 100 µM (inactive)
same,GI50,SK-MEL-5,> 100 µM (inactive)
same,GI50,NCI-H460,55.8 µM (inactive)
same,GI50,NCI/ADR-RES,> 100 µM (inactive)
same,GI50,U-251,> 100 µM (inactive)
same,GI50,A549,> 100 µM (inactive)
same,GI50,SK-MEL-28,61.5 µM (inactive)
same,GI50,HOP-92,> 100 µM (inactive)
same,GI50,ACHN,> 100 µM (inactive)
same,GI50,TK-10,42.1 µM (inactive)
same,GI50,SK-MEL-2,> 100 µM (inactive)
same,GI50,SNB-19,> 100 µM (inactive)
same,GI50,CCRF-CEM,16.7 µM (inactive)
same,GI50,LOX IMVI,32.3 µM (inactive)
same,GI50,OVCAR-3,> 100 µM (inactive)
same,GI50,UACC-62,> 100 µM (inactive)
same,GI50,T47D,83.4 µM (inactive)
same,GI50,KM12,36.3 µM (inactive)
same,GI50,CAKI-1,> 100 µM (inactive)
same,GI50,SN12C,> 100 µM (inactive)
same,GI50,IGROV-1,27.2 µM (inactive)
same,GI50,Malme-3M,21.1 µM (inactive)
same,GI50,NCI-H226,> 100 µM (inactive)
same,GI50,SNB-75,62.2 µM (inactive)
same,GI50,MDA-N,> 100 µM (inactive)
same,GI50,786-0,> 100 µM (inactive)
same,GI50,SF-268,27.9 µM (inactive)
same,GI50,HCT-116,66.5 µM (inactive)
same,GI50,HT-29,42.5 µM (inactive)
same,GI50,OVCAR-4,93.8 µM (inactive)
same,GI50,M14,42.3 µM (inactive)
same,GI50,EKVX,> 100 µM (inactive)
same,GI50,HL-60,17.1 µM (inactive)
same,GI50,UO-31,22.2 µM (inactive)
same,GI50,MDA-MB-231,> 100 µM (inactive)
same,GI50,PC-3,17.4 µM (inactive)
same,GI50,OVCAR-5,57.7 µM (inactive)
same,GI50,SF-295,> 100 µM (inactive)
same,GI50,NCI-H23,> 100 µM (inactive)
same,GI50,BT-549,30.8 µM (inactive)
same,GI50,Hs-578T,> 100 µM (inactive)
same,GI50,SK-OV-3,> 100 µM (inactive)
same,GI50,MOLT-4,3.9 µM (inactive)
same,GI50,COLO 205,45.9 µM (inactive)
same,GI50,OVCAR-8,> 100 µM (inactive)
same,GI50,UACC-257,> 100 µM (inactive)
same,GI50,SF-539,32.7 µM (inactive)
same,GI50,SW-620,46.3 µM (inactive)
same,GI50,RXF 393,15.6 µM (inactive)
same,GI50,HOP-62,> 100 µM (inactive)
same,GI50,HCT-15,40.3 µM
same,GI50,NCI-H522,28.6 µM (inactive)
CO/N=C/c1c(-c2ccc(Cl)cc2)c(/C=N/OC)n2c1sc1ccccc12,GI50,DU-145,> 100 µM (inactive)
same,GI50,MDA-MB-435,> 100 µM (inactive)
same,GI50,SK-MEL-5,> 100 µM (inactive)
same,GI50,NCI-H460,> 100 µM (inactive)
same,GI50,NCI/ADR-RES,> 100 µM (inactive)
same,GI50,U-251,> 100 µM (inactive)
same,GI50,A549,> 100 µM (inactive)
same,GI50,SK-MEL-28,> 100 µM (inactive)
same,GI50,HOP-92,8.49 µM (inactive)
same,GI50,ACHN,> 100 µM (inactive)
same,GI50,TK-10,> 100 µM (inactive)
same,GI50,MCF7,> 100 µM (inactive)
same,GI50,SK-MEL-2,> 100 µM (inactive)
same,GI50,SNB-19,> 100 µM (inactive)
same,GI50,CCRF-CEM,70.1 µM (inactive)
same,GI50,LOX IMVI,> 100 µM (inactive)
same,GI50,OVCAR-3,> 100 µM (inactive)
same,GI50,UACC-62,> 100 µM (inactive)
same,GI50,T47D,21.2 µM (inactive)
same,GI50,HCC 2998,> 100 µM (inactive)
same,GI50,KM12,> 100 µM (inactive)
same,GI50,CAKI-1,> 100 µM (inactive)
same,GI50,SN12C,> 100 µM (inactive)
same,GI50,IGROV-1,> 100 µM (inactive)
same,GI50,Malme-3M,> 100 µM (inactive)
same,GI50,SNB-75,> 100 µM (inactive)
same,GI50,MDA-N,> 100 µM (inactive)
same,GI50,786-0,> 100 µM (inactive)
same,GI50,SF-268,> 100 µM (inactive)
same,GI50,HCT-116,> 100 µM (inactive)
same,GI50,HT-29,81.8 µM (inactive)
same,GI50,OVCAR-4,83 µM (inactive)
same,GI50,EKVX,> 100 µM (inactive)
same,GI50,HL-60,32 µM (inactive)
same,GI50,UO-31,> 100 µM (inactive)
same,GI50,MDA-MB-231,> 100 µM (inactive)
same,GI50,PC-3,> 100 µM (inactive)
same,GI50,K562,> 100 µM (inactive)
same,GI50,OVCAR-5,> 100 µM (inactive)
same,GI50,SF-295,> 100 µM (inactive)
same,GI50,NCI-H23,> 100 µM (inactive)
same,GI50,BT-549,> 100 µM (inactive)
same,GI50,Hs-578T,> 100 µM (inactive)
same,GI50,SK-OV-3,> 100 µM (inactive)
same,GI50,MOLT-4,45.5 µM (inactive)
same,GI50,COLO 205,> 100 µM (inactive)
same,GI50,OVCAR-8,> 100 µM (inactive)
same,GI50,UACC-257,> 100 µM (inactive)
same,GI50,SW-620,> 100 µM (inactive)
same,GI50,RXF 393,> 100 µM (inactive)
same,GI50,HOP-62,> 100 µM (inactive)
same,GI50,HCT-15,> 100 µM
same,GI50,NCI-H522,> 100 µM (inactive)
CC(=O)OCC1C(C(C)OC(C)=O)CCC2C1CCC1(C)C(OC(C)=O)CCC21 (centres undefined),GI50,DU-145,83.9 µM (inactive)
same,GI50,A498,19.7 µM (inactive)
same,GI50,MDA-MB-435,18.7 µM (inactive)
same,GI50,SK-MEL-5,16.6 µM (inactive)
same,GI50,NCI-H460,16.9 µM (inactive)
same,GI50,NCI/ADR-RES,17 µM (inactive)
same,GI50,U-251,16.6 µM (inactive)
same,GI50,A549,18.9 µM (inactive)
same,GI50,SK-MEL-28,15.7 µM (inactive)
same,GI50,HOP-92,17.9 µM (inactive)
same,GI50,ACHN,14.8 µM (inactive)
same,GI50,TK-10,> 100 µM (inactive)
same,GI50,MCF7,19.1 µM (inactive)
same,GI50,SNB-19,20.4 µM (inactive)
same,GI50,CCRF-CEM,19.8 µM (inactive)
same,GI50,LOX IMVI,14.7 µM (inactive)
same,GI50,OVCAR-3,20.5 µM (inactive)
same,GI50,UACC-62,12.9 µM (inactive)
same,GI50,T47D,24.8 µM (inactive)
same,GI50,HCC 2998,18.8 µM (inactive)
same,GI50,KM12,15.7 µM (inactive)
same,GI50,CAKI-1,37.4 µM (inactive)
same,GI50,SN12C,18 µM (inactive)
same,GI50,IGROV-1,20 µM (inactive)
same,GI50,Malme-3M,16.9 µM (inactive)
same,GI50,NCI-H226,16.6 µM (inactive)
same,GI50,MDA-N,18.6 µM (inactive)
same,GI50,786-0,22.6 µM (inactive)
same,GI50,SF-268,23.9 µM (inactive)
same,GI50,HCT-116,15.8 µM (inactive)
same,GI50,HT-29,16 µM (inactive)
same,GI50,OVCAR-4,19.8 µM (inactive)
same,GI50,M14,17.1 µM (inactive)
same,GI50,EKVX,15.6 µM (inactive)
same,GI50,HL-60,17.1 µM (inactive)
same,GI50,RPMI-8226,16.5 µM (inactive)
same,GI50,UO-31,61.9 µM (inactive)
same,GI50,MDA-MB-231,15.6 µM (inactive)
same,GI50,K562,11.2 µM (inactive)
same,GI50,OVCAR-5,54.6 µM (inactive)
same,GI50,SF-295,21 µM (inactive)
same,GI50,NCI-H23,24.1 µM (inactive)
same,GI50,BT-549,11.6 µM (inactive)
same,GI50,Hs-578T,> 10 µM (inactive)
same,GI50,SR,23.7 µM (inactive)
same,GI50,MOLT-4,16.6 µM (inactive)
same,GI50,OVCAR-8,19.7 µM (inactive)
same,GI50,UACC-257,16.7 µM (inactive)
same,GI50,SF-539,17.7 µM (inactive)
same,GI50,SW-620,17.9 µM (inactive)
same,GI50,HOP-62,21.5 µM (inactive)
same,GI50,HCT-15,19.7 µM
same,GI50,NCI-H522,20.6 µM (inactive)
